# Reference: patent EP1627887A2, “Mouce trace amine associated receptors” (F.HOFFMANN-LA ROCHE AG, priority 2004, dated 2006)
# Where two headings read alike, the source gives them in different places.
# What was measured:
# Mouse TAAR 1 [1] = test: cAMP Biotrak EIA functional assay in HEK293 cells stably expressing the receptor
# Experimental: (§1) The amount of cAMP produced by HEK293 cells stably expressing the indicated receptor in response to stimulation by each of the listed compounds was measured using the cAMP Biotrak EIA System (Amersham). Shown are the EC50 values in µM (means of at least three independent experiments; EC50 values are calculated from experiments carried out with 12 concentrations each in duplicates evenly distributed in the range of 30 µM - 0.1 nM). The maximal response is represented as percentage of the maximal cAMP levels induced by p-TYR.
# (§2) cAMP assay: cAMP was assayed using the cAMP Biotrak Enzymeimmunoassay (EIA) System from Amersham as described in the product manual, following the so-called Non-acetylation EIA procdure.
# (§3) In the protocol the following minor modifications were introduced: After stimulation of HEK cells in 96 well plates the reaction was stopped by applying equal volume of pre cooled (-20°C) ethanol. Lysis of cells was not achieved by applying the lysis buffer supplied with the kit, but with transferring the 96 well plates to -80°C for a minimum of 6 hrs (up to several days). Thereafter the contents of the 96 well plates was dried at 50°C over night, and the material remaining in the 96 well plates was resuspended in 200 µl of the assay buffer (the buffer used for resuspending all reagents of the kit). The resuspension were assayed in serial dilutions in assay buffer.
# Mouse TAAR 1 [2] = system: Mouse TAAR 1
# Experimental: as §1, §2, §3
Compound,Max (Mouse TAAR 1 [1]; hek293 cells),EC50 (Mouse TAAR 1 [1]),EC50 (Mouse TAAR 1 [2]),"Max (Mouse TAAR 1 [1]; maximal response as percentage of the maximal cAMP levels induced by p-TYR, HEK293 cells stably expressing mTAAR1)"
"NCCc1c[nH]c2ccccc12 [TRY, tryptamine]",100%,,,
CNCCc1ccc(O)cc1 [N-methyl-p-tyramine],100%,1020 ± 390 nM,,
"NCCc1ccccc1 [β-PEA, β-phenylethylamine]",100%,,,
"NCCc1ccc(O)cc1 [p-TYR, p-tyramine]",,,1370 ± 330 nM,100%
CNCCc1ccccc1 [N-methyl-β-PEA],100%,,,
